The values that follow come from the supplement of paper PMC10307832.

Common to all, as to experiment: relative viability (nuclei count vs DMSO), 5 days (fraction); higher = more cells survive
Compound in test [1]: CCCS(=O)(=O)Nc1ccc(F)c(C(=O)c2c[nH]c3ncc(-c4ccc(Cl)cc4)cc23)c1F [Vemurafenib] + CC(C)C[C@H](NC(=O)[C@H](Cc1ccccc1)NC(=O)c1cnccn1)B(O)O [Bortezomib] (partner 0.002 µM)
Put shortly:
(§1)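 For relative viability, nuclei counts in treated wells were divided by those in vehicle wells. Lung cancer cell lines had been pin-tool dosed in 1536-well plates the day after seeding and cultured for 5 days, then fixed and stained in one step (final 0.05% Triton X-100, 1% formaldehyde, 1 ug/ml Hoechst) and imaged at 4×. Doses were one drug alone or a fixed anchor-drug dose plus five library-drug doses (not always all listed) in √10 steps, and values are duplicate-plate medians.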

Compound in test [2]: CCCS(=O)(=O)Nc1ccc(F)c(C(=O)c2c[nH]c3ncc(-c4ccc(Cl)cc4)cc23)c1F [Vemurafenib] + CS(=O)(=O)N1CCN(Cc2cc3nc(-c4cccc5[nH]ncc45)nc(N4CCOCC4)c3s2)CC1 [Pictilisib] (partner 1 µM)
Put shortly:
as §1

Compound in test [3]: COc1cccc2cc(-c3nc([C@H]4CC[C@H](C(=O)O)CC4)n4ncnc(N)c34)[nH]c12 [OSI-027] + Nc1ncn([C@H]2C[C@H](O)[C@@H](CO)O2)c(=O)n1 [Decitabine] (partner 2 µM)
In short, it runs like this: as §1

Compound in test [4]: Cc1nc(NC(=O)N2CCC[C@H]2C(N)=O)sc1-c1ccnc(C(C)(C)C(F)(F)F)c1 [Alpelisib] + Nc1ncn([C@H]2C[C@H](O)[C@@H](CO)O2)c(=O)n1 [Decitabine] (partner 2 µM)
In short, it runs like this: as §1

On to UMC-11, for which the relative viability in test [1] (first compound 0.03162 µM) is 0.468; in test [1] (first compound 0.1 µM), 0.713; in test [1] (first compound 0.3162 µM), 0.57; in test [1] (first compound 1 µM), 0.296; in test [2] (first compound 0.03162 µM), 0.867; in test [2] (first compound 0.1 µM) it was 0.801. Moreover, the relative viability came out at 0.714 in test [2] (first compound 0.3162 µM); 0.348 in test [2] (first compound 1 µM); 0.612 in test [3] (first compound 0.01 µM); 0.647 in test [3] (first compound 0.03162 µM); 0.52 in test [3] (first compound 0.1 µM); 0.492 in test [3] (first compound 0.3162 µM). The relative viability stood at 0.417 in test [3] (first compound 1 µM); 0.513 in test [4] (first compound 0.04 µM); 0.636 in test [4] (first compound 0.1265 µM); 0.693 in test [4] (first compound 0.4 µM); 0.535 in test [4] (first compound 1.265 µM); 0.745 in test [4] (first compound 4 µM).
